Assay results from ChEMBL document CHEMBL4257449, “New N-(2-phenyl-4-oxo-1,3-thiazolidin-3-yl)-1,2-benzothiazole-3-carboxamides and acetamides as antimicrobial agents” (2017).
Values after ≈ are worked out from the molar mass of the structure shown.

Assays:
Talaromyces funiculosus [1] = test: Antifungal activity against Penicillium funiculosum ATCC 36839 after 72 hrs by serial dilution method; assay type: functional; settings: ATCC 36839, 72 h
Micrococcus flavus [2] = test: Antibacterial activity against Micrococcus flavus ATCC 10240 after 24 hrs by microdilution method; assay type: functional; settings: ATCC 10240, 24 h
Pseudomonas aeruginosa [3] = test: Bactericidal activity against Pseudomonas aeruginosa ATCC 27853 incubated for 24 hrs followed by serial sub-cultivation and measured after 24 hrs by microdilution method; assay type: functional
Micrococcus flavus [4] = test: Bactericidal activity against Micrococcus flavus ATCC 10240 incubated for 24 hrs followed by serial sub-cultivation and measured after 24 hrs by microdilution method; assay type: functional
Listeria monocytogenes [5] = test: Bactericidal activity against Listeria monocytogenes NCTC 7973 incubated for 24 hrs followed by serial sub-cultivation and measured after 24 hrs by microdilution method; assay type: functional
Aspergillus ochraceus [6] = test: Fungicidal activity against Aspergillus ochraceus ATCC 12066 incubated for 72 hrs followed by serial sub-cultivation for 72 hrs and measured after 72 hrs by serial dilution method; assay type: functional
Bacillus cereus [7] = test: Antibacterial activity against Bacillus cereus after 24 hrs by microdilution method; assay type: functional
Staphylococcus aureus [8] = test: Antibacterial activity against Staphylococcus aureus ATCC 6538 after 24 hrs by microdilution method; assay type: functional; settings: ATCC 6538, 24 h
Salmonella typhimurium [9] = test: Bactericidal activity against Salmonella typhimurium ATCC 13311 incubated for 24 hrs followed by serial sub-cultivation and measured after 24 hrs by microdilution method; assay type: functional, Salmonella enterica subsp. enterica serovar Typhimurium
Aspergillus ochraceus [10] = test: Antifungal activity against Aspergillus ochraceus ATCC 12066 after 72 hrs by serial dilution method; assay type: functional; settings: ATCC 12066, 72 h
Aspergillus niger [11] = test: Fungicidal activity against Aspergillus niger ATCC 6275 incubated for 72 hrs followed by serial sub-cultivation for 72 hrs and measured after 72 hrs by serial dilution method; assay type: functional
Enterobacter cloacae [12] = test: Antibacterial activity against Enterobacter cloacae after 24 hrs by microdilution method; assay type: functional
Aspergillus fumigatus [13] = test: Antifungal activity against Aspergillus fumigatus after 72 hrs by serial dilution method; assay type: functional
Escherichia coli [14] = test: Bactericidal activity against Escherichia coli ATCC 35210 incubated for 24 hrs followed by serial sub-cultivation and measured after 24 hrs by microdilution method; assay type: functional
Bacillus cereus [15] = test: Bactericidal activity against Bacillus cereus incubated for 24 hrs followed by serial sub-cultivation and measured after 24 hrs by microdilution method; assay type: functional
Listeria monocytogenes [16] = test: Antibacterial activity against Listeria monocytogenes NCTC 7973 after 24 hrs by microdilution method; assay type: functional; settings: NCTC 7973, 24 h
Penicillium ochrochloron [17] = test: Fungicidal activity against Penicillium ochrochloron ATCC 9112 incubated for 72 hrs followed by serial sub-cultivation for 72 hrs and measured after 72 hrs by serial dilution method; assay type: functional
Aspergillus niger [18] = test: Antifungal activity against Aspergillus niger ATCC 6275 after 72 hrs by serial dilution method; assay type: functional; settings: ATCC 6275, 72 h
Trichoderma viride [19] = test: Antifungal activity against Trichoderma viride IAM 5061 after 72 hrs by serial dilution method; assay type: functional; settings: IAM 5061, 72 h
Aspergillus fumigatus [20] = test: Fungicidal activity against Aspergillus fumigatus incubated for 72 hrs followed by serial sub-cultivation for 72 hrs and measured after 72 hrs by serial dilution method; assay type: functional
Penicillium ochrochloron [21] = test: Antifungal activity against Penicillium ochrochloron ATCC 9112 after 72 hrs by serial dilution method; assay type: functional; settings: ATCC 9112, 72 h
Trichoderma viride [22] = test: Fungicidal activity against Trichoderma viride IAM 5061 incubated for 72 hrs followed by serial sub-cultivation for 72 hrs and measured after 72 hrs by serial dilution method; assay type: functional
Salmonella typhimurium [23] = test: Antibacterial activity against Salmonella typhimurium ATCC 13311 after 24 hrs by microdilution method; assay type: functional, Salmonella enterica subsp. enterica serovar Typhimurium; settings: Salmonella enterica, ATCC 13311, 24 h
Escherichia coli [24] = test: Antibacterial activity against Escherichia coli ATCC 35210 after 24 hrs by microdilution method; assay type: functional; settings: ATCC 35210, 24 h
Pseudomonas aeruginosa [25] = test: Antibacterial activity against Pseudomonas aeruginosa ATCC 27853 after 24 hrs by microdilution method; assay type: functional; settings: ATCC 27853, 24 h
Talaromyces funiculosus [26] = test: Fungicidal activity against Penicillium funiculosum ATCC 36839 incubated for 72 hrs followed by serial sub-cultivation for 72 hrs and measured after 72 hrs by serial dilution method; assay type: functional
Staphylococcus aureus [27] = test: Bactericidal activity against Staphylococcus aureus ATCC 6538 incubated for 24 hrs followed by serial sub-cultivation and measured after 24 hrs by microdilution method; assay type: functional
Candida albicans [28] = test: Antifungal activity against Candida albicans after 72 hrs by serial dilution method; assay type: functional
Aspergillus versicolor [29] = test: Antifungal activity against Aspergillus versicolor ATCC 11730 after 72 hrs by serial dilution method; assay type: functional; settings: ATCC 11730, 72 h
Aspergillus versicolor [30] = test: Fungicidal activity against Aspergillus versicolor ATCC 11730 incubated for 72 hrs followed by serial sub-cultivation for 72 hrs and measured after 72 hrs by serial dilution method; assay type: functional
Candida albicans [31] = test: Fungicidal activity against Candida albicans incubated for 72 hrs followed by serial sub-cultivation for 72 hrs and measured after 72 hrs by serial dilution method; assay type: functional
Enterobacter cloacae [32] = test: Bactericidal activity against Enterobacter cloacae incubated for 24 hrs followed by serial sub-cultivation and measured after 24 hrs by microdilution method; assay type: functional

Row | MIC (Talaromyces funiculosus [1]) | MIC (Micrococcus flavus [2]) | MIC (Bacillus cereus [7]) | MIC (Staphylococcus aureus [8]) | MIC (Aspergillus ochraceus [10]) | MIC (Enterobacter cloacae [12]) | MIC (Aspergillus fumigatus [13]) | MIC (Listeria monocytogenes [16]) | MIC (Aspergillus niger [18]) | MIC (Trichoderma viride [19]) | SMILES | MBC99.5 (Pseudomonas aeruginosa [3]) | MBC99.5 (Micrococcus flavus [4]) | MBC99.5 (Listeria monocytogenes [5]) | MFC99.5 (Aspergillus ochraceus [6]) | MBC99.5 (Salmonella typhimurium [9]) | MFC99.5 (Aspergillus niger [11]) | MBC99.5 (Escherichia coli [14]) | MBC99.5 (Bacillus cereus [15]) | MFC99.5 (Penicillium ochrochloron [17]) | MFC99.5 (Aspergillus fumigatus [20]) | other results
1 | 102 µM (≈ 39.8 µg/mL) | 205 µM (≈ 79.9 µg/mL) | 102 µM (≈ 39.8 µg/mL) | 102 µM (≈ 39.8 µg/mL) | 102 µM (≈ 39.8 µg/mL) | 205 µM (≈ 79.9 µg/mL) | 384 µM (≈ 150 µg/mL) | 20.5 µM (≈ 7.99 µg/mL) | 77 µM (≈ 30 µg/mL) | 51 µM (≈ 19.9 µg/mL) | O=C(NN1C(=O)CSC1c1cccc(Cl)c1)c1nsc2ccccc12 (stereo unspecified) | 38.4 ×10⁻² umol/ml | 38.4 ×10⁻² umol/ml | 3.84 ×10⁻² umol/ml | 20.5 ×10⁻² umol/ml | 38.4 ×10⁻² umol/ml | 10.2 ×10⁻² umol/ml | 20.5 ×10⁻² umol/ml | 38.4 ×10⁻² umol/ml | 38.4 ×10⁻² umol/ml | 76.8 ×10⁻² umol/ml | MIC (Penicillium ochrochloron [21]): 208 µM (≈ 81.1 µg/mL); MFC99.5 (Trichoderma viride [22]): 10.2 ×10⁻² umol/ml; MIC (Salmonella typhimurium [23]): 205 µM (≈ 79.9 µg/mL); MIC (Escherichia coli [24]): 102 µM (≈ 39.8 µg/mL); MIC (Pseudomonas aeruginosa [25]): 205 µM (≈ 79.9 µg/mL); MFC99.5 (Talaromyces funiculosus [26]): 20.5 ×10⁻² umol/ml; MBC99.5 (Staphylococcus aureus [27]): 20.5 ×10⁻² umol/ml; MIC (Candida albicans [28]): 102 µM (≈ 39.8 µg/mL); MIC (Aspergillus versicolor [29]): 51 µM (≈ 19.9 µg/mL); MFC99.5 (Aspergillus versicolor [30]): 10.2 ×10⁻² umol/ml; MFC99.5 (Candida albicans [31]): 20.5 ×10⁻² umol/ml; MBC99.5 (Enterobacter cloacae [32]): 38.4 ×10⁻² umol/ml
2 | 205 µM (≈ 79.9 µg/mL) | 384 µM (≈ 150 µg/mL) | 154 µM (≈ 60 µg/mL) | 102 µM (≈ 39.8 µg/mL) | 102 µM (≈ 39.8 µg/mL) | 205 µM (≈ 79.9 µg/mL) | 102 µM (≈ 40 µg/mL) | 589 µM (≈ 230 µg/mL) | 102 µM (≈ 39.8 µg/mL) | 102 µM (≈ 39.8 µg/mL) | O=C(NN1C(=O)CSC1c1ccccc1Cl)c1nsc2ccccc12 (stereo unspecified) | 38.4 ×10⁻² umol/ml | 76.8 ×10⁻² umol/ml | 76.8 ×10⁻² umol/ml | 20.5 ×10⁻² umol/ml | 38.4 ×10⁻² umol/ml | 20.5 ×10⁻² umol/ml | 38.4 ×10⁻² umol/ml | 38.4 ×10⁻² umol/ml | 76.8 ×10⁻² umol/ml | 20.5 ×10⁻² umol/ml | MIC (Penicillium ochrochloron [21]): 384 µM (≈ 150 µg/mL); MFC99.5 (Trichoderma viride [22]): 20.5 ×10⁻² umol/ml; MIC (Salmonella typhimurium [23]): 205 µM (≈ 79.9 µg/mL); MIC (Escherichia coli [24]): 282 µM (≈ 110 µg/mL); MIC (Pseudomonas aeruginosa [25]): 282 µM (≈ 110 µg/mL); MFC99.5 (Talaromyces funiculosus [26]): 38.4 ×10⁻² umol/ml; MBC99.5 (Staphylococcus aureus [27]): 38.4 ×10⁻² umol/ml; MIC (Candida albicans [28]): 384 µM (≈ 150 µg/mL); MIC (Aspergillus versicolor [29]): 25.6 µM (≈ 9.98 µg/mL); MFC99.5 (Aspergillus versicolor [30]): 5.1 ×10⁻² umol/ml; MFC99.5 (Candida albicans [31]): 76.8 ×10⁻² umol/ml; MBC99.5 (Enterobacter cloacae [32]): 38.4 ×10⁻² umol/ml
3 | 116 µM (≈ 40.3 µg/mL) | 362 µM (≈ 126 µg/mL) | 241 µM (≈ 83.8 µg/mL) | 241 µM (≈ 83.8 µg/mL) | 116 µM (≈ 40.3 µg/mL) | 362 µM (≈ 126 µg/mL) | 464 µM (≈ 161 µg/mL) | 482 µM (≈ 168 µg/mL) | 116 µM (≈ 40.3 µg/mL) | 116 µM (≈ 40.3 µg/mL) | O=C(Cc1nsc2ccccc12)N/N=C/c1c(F)cccc1Cl | 48.2 ×10⁻² umol/ml | 48.2 ×10⁻² umol/ml | 96.4 ×10⁻² umol/ml | 23.2 ×10⁻² umol/ml | 48.2 ×10⁻² umol/ml | 23.2 ×10⁻² umol/ml | 48.2 ×10⁻² umol/ml | 48.2 ×10⁻² umol/ml | 23.2 ×10⁻² umol/ml | 92.8 ×10⁻² umol/ml | MIC (Penicillium ochrochloron [21]): 116 µM (≈ 40.3 µg/mL); MFC99.5 (Trichoderma viride [22]): 23.2 ×10⁻² umol/ml; MIC (Salmonella typhimurium [23]): 241 µM (≈ 83.8 µg/mL); MIC (Escherichia coli [24]): 362 µM (≈ 126 µg/mL); MIC (Pseudomonas aeruginosa [25]): 362 µM (≈ 126 µg/mL); MFC99.5 (Talaromyces funiculosus [26]): 23.2 ×10⁻² umol/ml; MBC99.5 (Staphylococcus aureus [27]): 48.2 ×10⁻² umol/ml; MIC (Candida albicans [28]): 464 µM (≈ 161 µg/mL); MIC (Aspergillus versicolor [29]): 116 µM (≈ 40.3 µg/mL); MFC99.5 (Aspergillus versicolor [30]): 23.2 ×10⁻² umol/ml; MFC99.5 (Candida albicans [31]): 58 ×10⁻² umol/ml; MBC99.5 (Enterobacter cloacae [32]): 48.2 ×10⁻² umol/ml
